Among the data in ChEMBL document CHEMBL3714751, “Diaminopyrimidines as P2X3 and P2X2/3 modulators” (2009) are inhibition, Cmax and AUC values, retold here.

The source made the active and inactive calls. The calls are words filed in the database; no cut-off is given here.

One data set deals with T1, P2X purinoceptor 3 (Rattus norvegicus) (UniProt P49654).
T1 sequence (whole entry): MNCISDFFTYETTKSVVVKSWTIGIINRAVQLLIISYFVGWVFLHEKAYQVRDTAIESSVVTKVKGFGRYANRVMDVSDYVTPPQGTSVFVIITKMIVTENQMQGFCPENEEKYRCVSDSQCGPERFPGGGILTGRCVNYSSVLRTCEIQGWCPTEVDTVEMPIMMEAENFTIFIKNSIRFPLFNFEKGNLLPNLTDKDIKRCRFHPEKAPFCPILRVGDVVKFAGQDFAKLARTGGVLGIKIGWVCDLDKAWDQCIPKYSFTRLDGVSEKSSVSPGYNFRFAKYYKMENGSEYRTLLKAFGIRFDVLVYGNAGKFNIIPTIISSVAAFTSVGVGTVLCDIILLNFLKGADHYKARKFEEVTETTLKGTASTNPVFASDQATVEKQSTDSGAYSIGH
The data set can be described thus: Antagonist activity against rat P2X3 receptor expressed in CHOK1 cells assessed as inhibition of alpha,beta-meATP-induced calcium response incubated for 20 mins by Fluo-3AM dye based FLIPR assay. It counts as functional, cell-based. The conditions noted are these: CHO-K1.
As to `CCC(CC)NCC(=O)Nc1ncc(Oc2cc(I)c(OC)cc2C(C)C)c(N)n1`, the inhibition entry is “Active”.
Regarding `COc1cc(C(C)C)c(Oc2cnc(NC(=O)CN3CCOCC3)nc2N)cc1I`, the inhibition entry is “Active”.
For the molecule `COCCNCC(=O)Nc1ncc(Oc2cc(I)c(OC)cc2C(C)C)c(N)n1`, the inhibition entry was “Active”.
Take `COc1cc(C(C)C)c(Oc2cnc(NC(=O)CN3CCC(C(C)=O)CC3)nc2N)cc1I`: the inhibition entry is “Active”.
Consider `COc1cc(C(C)C)c(Oc2cnc(NC(=O)CN3CC(C)OC(C)C3)nc2N)cc1I` (stereo not drawn), for which the inhibition entry is “Active”.
On to `COc1cc(C(C)C)c(Oc2cnc(NC(=O)CNC3CCC(C)CC3)nc2N)cc1I` (stereo not drawn), for which the inhibition entry was “Active”.
In the case of `COc1cc(C(C)C)c(Oc2cnc(NC(=O)CNCC(C)C)nc2N)cc1I`, the inhibition result is “Active”.
Take `COc1cc(C(C)C)c(Oc2cnc(NC(=O)CN3CCN(CCO)CC3)nc2N)cc1I`: the inhibition entry was “Active”.
Turning to `COc1cc(C(C)C)c(Oc2cnc(NC(=O)CN3CCC(N)CC3)nc2N)cc1I`, the inhibition result was “Active”.
For `C#Cc1cc(Oc2cnc(NC(=O)CN3CCN(C)CC3)nc2N)c(C(C)C)cc1OC`, the inhibition result was “Active”.
As for `COc1cc(C(C)C)c(Oc2cnc(NC(=O)CNCC3CC3)nc2N)cc1I`, the inhibition entry is “Active”.
As for `COc1cc(C(C)C)c(Oc2cnc(NC(=O)CN3CCCC3)nc2N)cc1I`, the inhibition result was “Active”.
The same measure, in the same setting: to `CCCNCC(=O)Nc1ncc(Oc2cc(I)c(OC)cc2C(C)C)c(N)n1` belongs “Active”; to `COc1cc(C(C)C)c(Oc2cnc(NC(=O)CN3CCN(CCCO)CC3)nc2N)cc1I`, “Active”.
`COc1cc(C(C)C)c(Oc2cnc(NC(=O)CN(C)C3CCCCC3)nc2N)cc1I`: the inhibition result was “Active”.
With `CCN(CCCCO)CC(=O)Nc1ncc(Oc2cc(I)c(OC)cc2C(C)C)c(N)n1`, the inhibition result was “Active”.
Regarding `COc1cc(C(C)C)c(Oc2cnc(NC(=O)CNC3CCCCC3)nc2N)cc1I`, the inhibition result is “Active”.
The same measure, in the same setting: to `COc1cc(C(C)C)c(Oc2cnc(NC(=O)CN(C)C)nc2N)cc1I` belongs “Active”; to `COc1cc(C(C)C)c(Oc2cnc(NC(=O)CN3CCCCC3)nc2N)cc1I`, “Active”.
As to `CCCN(CCC)CC(=O)Nc1ncc(Oc2cc(I)c(OC)cc2C(C)C)c(N)n1`, the inhibition result is “Active”.
In the case of `COc1cc(C(C)C)c(Oc2cnc(NC(=O)CNC3CCC3)nc2N)cc1I`, the inhibition entry is “Active”.
On the same count and under the same terms, as for `COc1cc(C(C)C)c(Oc2cnc(NC(=O)CN3CCNCC3)nc2N)cc1I`, the entry is “Active”; as for `COc1cc(C(C)C)c(Oc2cnc(NC(=O)CN3CCN(C)CC3)nc2N)cc1I`, “Active”.
`COc1cc(C(C)C)c(Oc2cnc(NC(=O)CNC3CCCC3)nc2N)cc1I`: the inhibition result was “Active”.
Consider `COc1cc(C(C)C)c(Oc2cnc(NC(=O)CNC(C)(C)C)nc2N)cc1I`, for which the inhibition result is “Active”.
Same read-out and setting: to `COc1cc(C(C)C)c(Oc2cnc(NC(=O)CNC3CCN(C)CC3)nc2N)cc1I` belongs “Active”.

A further data set concerns Canis familiaris. The data set can be described thus: Cmax in dog assessed as 5-(5-Iodo-2-iso-propyl-4-methoxy-phenoxy)-pyrimidine-2,4-diamine level at 0.127 mmol administered orally by gavage after 24 hrs by HPLC method. It counts as ADME, organism-based, Canis lupus familiaris. More on the design: dose 0.127 mmol, route oral. The conditions noted are these: in vivo, po.
The Cmax is the maximum level reached in the sampled fluid or tissue. As to `CCCN(CCC)CC(=O)Nc1ncc(Oc2cc(I)c(OC)cc2C(C)C)c(N)n1`, the Cmax was 120 ng/mL.

A further data set deals with Canis familiaris. The data set can be described thus: AUC in dog assessed as 5-(5-Iodo-2-iso-propyl-4-methoxy-phenoxy)-pyrimidine-2,4-diamine level at 0.127 mmol administered orally by gavage after 24 hrs by HPLC method. More on the design: dose 0.127 mmol, time < 24 hr, route oral. It counts as ADME, organism-based, Canis lupus familiaris. The conditions noted are these: in vivo, po.
What is called AUC is the area under the concentration-time curve, a measure of exposure. For `CCCN(CCC)CC(=O)Nc1ncc(Oc2cc(I)c(OC)cc2C(C)C)c(N)n1`, the AUC came to 372 ng·h/mL.
